Literature values, collected in patent US20100137333A1, “ANTIFUNGAL COMPOSITION AND METHODS FOR USING” (priority 2006, published 2010).

Settings: in vivo

Row | Substance | dermal toxicity
1 | poly(vinylpyrrolidone/1-eicosene) [PVPE] | no demonstrable dermal toxicity
2 | Poly(vinylpyrrolidone/1-hexadecene) [PVPH] | no demonstrable dermal toxicity
